In paper PMC9000886, “Protection-Free Strategy for the Synthesis of Boro-Depsipeptides in Aqueous Media under Microwave-Assisted Conditions” (Molecules, 2022):

assay: Solubility observed when preparing compounds for the cytotoxicity experiments; assay type: physicochemical; settings: reason for exclusion from cytotoxicity experiments; stocks 1 mM in 100% DMSO
Method: HEK293 cells were plated at 70% density in 24-well plates at 37 °C. All compounds were first dissolved in 100% DMSO to give 1 mM as a stock for the following dilutions. […] Further, the cell viability was measured by the 3-(4,5-Dimethyl-2-thiazolyl)-2,5-diphenyl-2H-tetrazolium bromide (MTT) assay. After incubating for 1h, the reaction product was read at 570 nm using a Synergy HT microplate reader (BioTek Instruments, Winooski, VT, USA).

SMILES | solubility
CC(C)C(=O)OC(C(=O)NC(C)(C)C)c1ccc(F)c(B(O)O)c1 (centres unmarked) [Compound 4e, (5-(2-(Tert-Butylamino)-1-(Isobutyryloxy)-2-Oxoethyl)-2-Fluorophenyl)boronic Acid] | poor solubility
CC(C)(C)NC(=O)COC(=O)c1ccc(B(O)O)cc1 [Compound 5a, (4-((2-(Tert-Butylamino)-2-Oxoethoxy)carbonyl)phenyl)boronic Acid] | poor solubility
CC(C)(C)NC(=O)C(OC(=O)c1ccc(B(O)O)cc1)c1ccccc1F (centres unmarked) [Compound 5h, (4-((2-(Tert-Butylamino)-1-(2-Fluorophenyl)-2-Oxoethoxy)carbonyl)phenyl)boronic Acid] | poor solubility
CC(C)(C)NC(=O)C(OC(=O)c1ccc(B(O)O)cc1)c1ccnc2ccccc12 (centres unmarked) [Compound 5i, (4-((2-(Tert-Butylamino)-2-Oxo-1-(Quinolin-4-yl)ethoxy)carbonyl)phenyl)boronic Acid] | poor solubility
CC(C)(C)NC(=O)COC(=O)c1ccc(B(O)O)c([N+](=O)[O-])c1 [Compound 5l, (4-((2-(Tert-Butylamino)-2-Oxoethoxy)carbonyl)-2-Nitrophenyl)boronic Acid] | poor solubility
